What follows are compounds tested against T1, hITK enzyme (FLAG-tagged full-length hITK) (Homo sapiens, UniProt Q08881) (assay: ITK inhibitory activity (HTRF kinase assay, biotinylated GST-SLP76 substrate)). Conditions: IC50 calculated from the 2 test compound concentrations sandwiching 50% ITK inhibitory rate.
T1 construct: strongly expressing FLAG-tagged full-length hITK in Sf9 cells; FLAG; made in house; host or cells: Sf9 insect cells (ITK); Escherichia coli (GST-SLP76 substrate)
T1 sequence (Q08881 1-620): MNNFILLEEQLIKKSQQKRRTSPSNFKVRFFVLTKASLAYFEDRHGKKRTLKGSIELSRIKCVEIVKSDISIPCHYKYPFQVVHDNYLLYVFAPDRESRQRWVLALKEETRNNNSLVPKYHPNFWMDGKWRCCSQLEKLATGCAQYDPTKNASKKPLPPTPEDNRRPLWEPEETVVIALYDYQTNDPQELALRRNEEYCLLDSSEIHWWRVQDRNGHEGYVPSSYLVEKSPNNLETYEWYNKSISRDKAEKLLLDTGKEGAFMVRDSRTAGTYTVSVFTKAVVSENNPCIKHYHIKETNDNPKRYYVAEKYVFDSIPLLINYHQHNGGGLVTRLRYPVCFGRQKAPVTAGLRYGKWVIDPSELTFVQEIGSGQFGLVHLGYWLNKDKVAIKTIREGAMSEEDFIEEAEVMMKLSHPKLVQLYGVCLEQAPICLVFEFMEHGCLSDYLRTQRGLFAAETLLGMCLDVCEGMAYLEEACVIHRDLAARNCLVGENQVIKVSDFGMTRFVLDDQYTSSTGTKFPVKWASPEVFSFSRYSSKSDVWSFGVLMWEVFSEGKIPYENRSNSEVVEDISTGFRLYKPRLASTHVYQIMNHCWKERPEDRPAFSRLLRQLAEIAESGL
Format: biochemical
Protocol: (1) Preparation of hITK Enzyme
hITK enzyme was prepared by strongly expressing FLAG-tagged full-length hITK in Sf9 cells, and purifying same by anti-FLAG antibody column.
(2) Preparation of biotinylated GST-SLP76
Biotinylated GST-SLP76 was prepared by strongly expressing GST-tagged SLP76 (aa95-175) in Escherichia coli, purifying same by glutathion sepharose column and biotinylating same.
(3) Preparation of Solution
(i) buffer for dilution: 20 mmol/L 3-(N-morpholino)propanesulfonic acid (pH 7.0) (DOJINDO LABORATORIES), 10 mmol/L magnesium chloride (Sigma-Aldrich Corporation), 1 mmol/L dithiothreitol (Nacalai Tesque, Inc.), 0.1% gelatin (Sigma-Aldrich Corporation)
(ii) substrate solution: 0.2 μg/mL biotinylated GST-SLP76, 100 μmol/L ATP (Sigma-Aldrich Corporation), prepared with buffer for dilution
(iii) test compound solution: test compound, 50% dimethyl sulfoxide (DMSO), prepared with buffer for dilution
(iv) enzyme solution: 50 ng/mL hITK enzyme, prepared with buffer for dilution
(v) control solution: solution after removal of test compound from the mixture of the above-mentioned (i), (ii) and (iii)
(vi) blank solution: solution after removal of ATP from the mixture of the above-mentioned (i), (ii) and (iii)
(vii) detection buffer: 0.1 μg/mL Anti-Phosphotyrosine (PT66)-Cryptate (Cisbio), 2.5 μg/mL streptavidin-binding XL665 (Cisbio), 50 mmol/L 4-(2-hydroxyethyl)-1-piperazineethanesulfonic acid (pH 7.4) (Nacalai Tesque, Inc.), 30 mmol/L EDTA (NipponGene), 0.1% TritonX (Sigma-Aldrich Corporation), 200 mmol/L potassium fluoride (Wako Pure Chemical Industries, Ltd.), 0.05% bovine serum albumin (Sigma-Aldrich Corporation) (4) Measurement of ITK Inhibitory Activity
A substrate solution (25 μL/well), a test compound solution (5 μL/well) and an enzyme solution (20 μL/well) were added into 96 well half-area white plate (plate, Corning Incorporated 3642) to start a kinase reaction. The plate was stood still at room temperature for 10 min. Then, a detection buffer (50 μL/well) was added to the plate. After 2 hr from the addition of the detection buffer, fluorescence intensity at 620 nm (excited at 337 nm), and fluorescence intensity at 665 nm ([…]) were measured by a fluorescence microplate reader.
The Ratio (fluorescence intensity at 665 nm/fluorescence intensity at 620 nm×10000) of each test compound was calculated from the measured fluorescence intensity. Simultaneously, the measurement was performed using a blank solution and a control solution, and % of control value of each test compound was calculated from the following formula. % of control=(Ratio of test compound−Ratio of blank)/(Ratio of control−Ratio of blank)×100 ITK inhibitory rate (%)=100−(% of control)
The IC50 value was calculated from the test compound concentrations at 2 points sandwiching 50% ITK inhibitory rate.
In the test for the compounds of Examples 380 and 381, the ATP concentration of the substrate solutions was 6 μmol/L.

SMILES	IC50 [nM]
CC1(C)CCc2c(-c3cc4ccc(N(CCO)C(=O)CN5CCCCCC5=O)cc4[nH]3)n[nH]c2C1 [Example 256]	1
CC(C)OCC(=O)N(C)c1ccc2cc(-c3n[nH]c4c3CCCC4)[nH]c2c1 [Example 359]	21
CN(C(=O)[C@@H]1CCCN1C)c1ccc2cc(-c3n[nH]c4c3CCC(C)(C)C4)[nH]c2c1 [Example 148]	19
CC(C)C(CO)N(C)C(=O)c1ccc2cc(-c3n[nH]c4c3CCC(C)(C)C4)[nH]c2c1 (stereo not drawn) [Example 25]	26
CCN(C)C(=O)c1ccc2[nH]c(-c3n[nH]c4c3CCC(C)(C)C4)cc2c1 [Example 331]	60
CN(C(=O)C(O)c1ccccc1)c1ccc2cc(-c3n[nH]c4c3CCC(C)(C)C4)[nH]c2c1 (stereo not drawn) [Example 68]	7
CN(C(=O)Cn1cccn1)c1ccc2cc(-c3n[nH]c4c3CCC(C)(C)C4)[nH]c2c1 [Example 157]	1
CC1(C)CCc2c(-c3cc4cc(C(=O)NCCN5CCOCC5)ccc4[nH]3)n[nH]c2C1 [Example 322]	41
CN(C(=O)[C@@H](O)C1CCCCC1)c1ccc2cc(-c3n[nH]c4c3CCC(C)(C)C4)[nH]c2c1 [Example 78]	7
CC1CCN(CC(=O)N(C)c2ccc3cc(-c4n[nH]c5c4CCC(C)(C)C5)[nH]c3c2)C1=O (stereo not drawn) [Example 162]	1
CN(C(=O)CN1C(=O)CC[C@@H]1CO)c1ccc2cc(-c3n[nH]c4c3CCC(C)(C)C4)[nH]c2c1 [Example 177]	2
CC1CN(CC(=O)N(C)c2ccc3cc(-c4n[nH]c5c4CCC(C)(C)C5)[nH]c3c2)CC(C)O1 (stereo not drawn) [Example 118]	3
CC1(C)CCc2c(-c3cc4cc(C(=O)NC(CO)CO)ccc4[nH]3)n[nH]c2C1 [Example 328]	26
CCC(=O)N(C)c1ccc2cc(-c3n[nH]c4c3CC[C@@H](C)C4)[nH]c2c1 [Example 354]	16
C[C@@H](C(=O)N(C)c1ccc2cc(-c3n[nH]c4c3CCC(C)(C)C4)[nH]c2c1)N(C)C(=O)C1CC1 [Example 205]	27
Cc1cc(C(=O)N(C)c2ccc3cc(-c4n[nH]c5c4CCC(C)(C)C5)[nH]c3c2)no1 [Example 59]	7
CCN(c1ccc2cc(-c3n[nH]c4c3CCC(C)(C)C4)[nH]c2c1)C(=O)[C@H]1CC[C@@H](O)CC1 [Example 258]	4
CC(C)CC(=O)N(C)c1ccc2cc(-c3n[nH]c4c3CCCC4)[nH]c2c1 [Example 361]	20
CC(C(=O)N(CCO)c1ccc2cc(-c3n[nH]c4c3CCC(C)(C)C4)[nH]c2c1)C1CCOCC1 (stereo not drawn) [Example 242]	3
CC1(C)CCc2c(-c3cc4cc(C(N)=O)ccc4[nH]3)n[nH]c2C1 [Example 297]	48
CN(C(=O)[C@@H]1CCC(=O)N1C)c1ccc2cc(-c3n[nH]c4c3CCC(C)(C)C4)[nH]c2c1 [Example 151]	3
CCN(C(=O)CN1C(=O)COC[C@@H]1C)c1ccc2cc(-c3n[nH]c4c3CCC(C)(C)C4)[nH]c2c1 [Example 271]	3
CC(C(=O)N(C)c1ccc2cc(-c3n[nH]c4c3CCC(C)(C)C4)[nH]c2c1)N(C)C(=O)OC(C)(C)C (stereo not drawn) [Example 195]	20
CC1(C)CCc2c(-c3cc4ccc(N(CCO)C(=O)C(O)C5CCCOC5)cc4[nH]3)n[nH]c2C1 (stereo not drawn) [Example 246]	7
CC(=O)N(C)c1ccc2cc(-c3n[nH]c4c3CCC(C)(C)C4)[nH]c2c1 [Example 1, N-[2-(6,6-dimethyl-4,5,6,7-tetrahydro-1H-indazol-3-yl)-1H-indol-6-yl]-N-methylacetamide]	7
CC1(C)CCc2c(-c3cc4cc(NC(=O)c5ccccc5)ccc4[nH]3)n[nH]c2C1 [Example 344]	278

SMILES	IC50 [nM]
CC1(C)CCc2c(-c3cc4ccc(N(CCO)C(=O)CN5CCCCC5=O)cc4[nH]3)n[nH]c2C1 [Example 253]	2
CN(C)CCCN(C(=O)CC1CCOCC1)c1ccc2cc(-c3n[nH]c4c3CCC(C)(C)C4)[nH]c2c1 [Example 226]	2
CN(C)CCN(C(=O)C1CCCCC1)c1ccc2cc(-c3n[nH]c4c3CCC(C)(C)C4)[nH]c2c1 [Example 215]	< 3
CC(=O)N1CCC[C@@H]1C(=O)N(C)c1ccc2cc(-c3n[nH]c4c3CCC(C)(C)C4)[nH]c2c1 [Example 166]	1
CC1CC(=O)N(CC(=O)N(C)c2ccc3cc(-c4n[nH]c5c4CCC(C)(C)C5)[nH]c3c2)C1 (stereo not drawn) [Example 188]	1
CC(=O)N(C)c1ccc2cc(-c3n[nH]c4c3CCCC4)[nH]c2c1 [Example 360]	67
CN(C(=O)NCc1ccccc1)c1ccc2cc(-c3n[nH]c4c3CCC(C)(C)C4)[nH]c2c1 [Example 51]	26
COCC(OC)C(=O)N(C)c1ccc2cc(-c3n[nH]c4c3CCC(C)(C)C4)[nH]c2c1 (stereo not drawn) [Example 47]	8
CC1COCC(=O)N1C(C)C(=O)N(C)c1ccc2cc(-c3n[nH]c4c3CCC(C)(C)C4)[nH]c2c1 (stereo not drawn) [Example 153]	5
CN(C(=O)CC1CCCCC1)c1ccc2cc(-c3n[nH]c4c3CCC(C)(C)C4)[nH]c2c1 [Example 72]	9
CCN(C(=O)CN1CC(C)(C)OCC1=O)c1ccc2cc(-c3n[nH]c4c3CCC(C)(C)C4)[nH]c2c1 [Example 277]	1
CC(=O)N(C)CC(=O)N(C)c1ccc2cc(-c3n[nH]c4c3CCC(C)(C)C4)[nH]c2c1 [Example 192]	2
CC1(C)CCc2c(-c3cc4ccc(N(CCO)C(=O)[C@H]5CC[C@H](O)CC5)cc4[nH]3)n[nH]c2C1 [Example 234]	16
CN(C(=O)CN1C(=O)CC[C@H]1CO)c1ccc2cc(-c3n[nH]c4c3CCC(C)(C)C4)[nH]c2c1 [Example 160]	1
COCCN(C(=O)C(C)C1CCOCC1)c1ccc2cc(-c3n[nH]c4c3CCC(C)(C)C4)[nH]c2c1 (stereo not drawn) [Example 264]	10
CC(C(=O)N(C)c1ccc2cc(-c3n[nH]c4c3CCC(C)(C)C4)[nH]c2c1)C1CCCCC1 (stereo not drawn) [Example 97]	20
CN(C(=O)CN1CCCCC1)c1ccc2cc(-c3n[nH]c4c3CCC(C)(C)C4)[nH]c2c1 [Example 79]	13
CC1(C)CCc2c(-c3cc4cc(C(=O)NCCOc5ccccc5)ccc4[nH]3)n[nH]c2C1 [Example 309]	102
CC(C(=O)N(C)c1ccc2cc(-c3n[nH]c4c3CCC(C)(C)C4)[nH]c2c1)N1CCC[C@@H](O)C1 (stereo partly drawn) [Example 112]	7
CN(C)C(=O)c1ccc2[nH]c(-c3n[nH]c4c3CCC(C)(C)C4)cc2c1 [Example 296]	58
CC(C(=O)N(C)c1ccc2cc(-c3n[nH]c4c3CCC(C)(C)C4)[nH]c2c1)N1CCOC(O)C1 (stereo not drawn) [Example 378]	2
COCC(C)N(C)C(=O)c1ccc2cc(-c3n[nH]c4c3CCC(C)(C)C4)[nH]c2c1 (stereo not drawn) [Example 22]	40
COCC(=O)N(C)c1ccc2cc(-c3n[nH]c4c3CC[C@@H](C)C4)[nH]c2c1 [Example 353]	16
CO[C@@H]1CCCN(C(C)C(=O)N(C)c2ccc3cc(-c4n[nH]c5c4CCC(C)(C)C5)[nH]c3c2)C1 (stereo partly drawn) [Example 117]	6
CC1CCN(c2ccc3cc(-c4n[nH]c5c4CCC(C)(C)C5)[nH]c3c2)C1=O (stereo not drawn) [Example 229]	38
